Source: patent publication US9334271B2, “Purine derivatives and their use in the treatment of disease” (Novarits AG, priority 2012, dated 2016)
Like-named read-outs stand apart in the source and are kept apart here.

What was measured:
recombinant human mTOR = recombinant human mTOR (Homo sapiens (Human), UniProt P42345); experiment: Test 1: mTOR ATP-binding assay based on TR-FRET; details: GST-tagged truncated human mTOR, tracer-314, TR-FRET
Procedure: Test 1: mTOR ATP-Binding Assay Based on TR-FRET for Recombinant Human mTOR
2. The final volume of the assay is 10 μL and the order of addition is as follows:
50 nL of compounds dilution;
Incubated for 60 minutes at room temperature.
TR-FRET measured in Biotek Synergy2 reader at: • Excitation 340 nm/emission 665 nm • Excitation 340 nm/emission 620 nm
The following final concentrations are used:
1 nM Europium anti-GST antibody;
The following controls are used:
3. IC50 determinations may be performed as follows:
The Emission ratio is converted to percentage of inhibition for each compound concentration. IC50 values are calculated by fitting a sigmoidal dose-response curve to a plot of assay readout over compound concentration. All fits and analysis are performed with the program XLfit4 (ID Business Solutions, Guildford, UK).

[1] = tested on: cellular mTOR kinase activity (phosphorylation of Thr 389 of S6K1) in TSC1-/- MEFs; experiment: Test 2: Cellular mTOR assay (P-P70S6K T389 Surefire); type: cell-based; details: Mus musculus
Procedure: Test 2: Cellular mTOR Assay
30 μl are added per well to a 384 well-plate using a Multidrop instrument (Thermo scientific), resulting in 4000 cells/well. The plates are incubated at 37° C./5% CO2 for 20 hours (to allow for settling and adherance to the surface).
Eight 3-fold serial dilutions of test-compounds (beginning at 1.8 mM) are prepared in 90% DMSO and compiled on 384 well master plates (Greiner). A pan-pPI3K/mTOR inhibitor (0.8 mM of 8-(6-methoxy-pyridin-3-yl)-3-methyl-1-(4-piperazin-1-yl-3-trifluoromethyl-phenyl)-1,3-dihydro-imidazo[4,5-c]quinolin-2-one in 90% DMSO) is added to the wells for the low control. 90% DMSO is added to the wells for the high controls. Compounds are provided as 250 nl shots (Hummingbird) in 384 well-polypropylene microplates (compound plates). 50 μl of growth medium is added to the compound plates (dilution 1:200) with the Multidrop. After shaking (1 min at 2000 rpm), 10 μl of the first dilution is then transferred to the cell plate with a Matrix Plate Mate 2×3 pipettor (final dilution 1:4). After 1 hour of treatment, medium is removed from the plate and 20 μl of Surefire lysis buffer is added per well with the Multidrop.
Cell lysates are frozen for 15 minutes, thawed with shaking and transferred to the experimental 384 well-Proxiplate (5 μl/well) for the P-P70S6K (T389) Surefire assay (Perkin Elmer #TGR70S50). The first mix is composed of the reaction buffer (containing the specific antibody), the activation buffer and the acceptor beads (40 vol, 10 vol and 1 vol respectively). 5 μl per well is added to the lysates with a Zephyr® SPE Workstation (Caliper Life Sciences) and incubated for 2 hours with shaking at room temperature. After this incubation time, the second mix of dilution buffer and donor beads (20 vol and 1 vol respectively) is added to the plate with the same instrument (2 μl/well). After 2 hours, the plate can be read with an EnVision® Multilabel Reader (Perkin Elmer). Since the beads are light sensitive, their transfer and incubation is executed in a dark room (greenlight).
The raw data is used to generate dose response curves for test compounds and IC50 values calculated therefrom.

H4 mCherry-GFP-LC3 cells = experiment: Test 3: Autophagy assay (mCherry-GFP-LC3 reporter, high-content imaging); type: cell-based, human; details: 16-18 h treatment, mCherry-positive LC3 puncta/cell; for EC50: Homo sapiens
Excerpt: Autophagy is a catabolic pathway that degrades bulk cytosol in lysosomal compartments enabling amino acids and fatty acids to be recycled. One of the key regulators of autophagy is the mammalian target of rapamycin (mTOR), a conserved serine/threonine kinase which suppresses the initiation of the autophagic process when nutrients, growth factors and energy are available. To quantify autophagy induction by mTOR inhibitors, we use a mCherry-GFP-LC3 reporter which is amenable to retroviral delivery into mammalian cells, stable expression and analysis by fluorescence microscopy.
The amino acid sequence of the mCherry-GFP-LC3 construct is shown below (SEQ ID NO: 1). The mCherry sequence is underlined, GFP sequence is in bold and LC3A sequence is boxed.
Described hereinafter is an imaging protocol and image recognition algorithm to visualize and measure changes in the autophagic pathway.
Quantification of Autophagy Using High-Content Imaging and Analysis
• 1. Day 0: Cell plating. Subconfluent H4 mCherry-GFP-LC3 cells are harvested by trypsinization, resuspended in growth medium, and counted (H4 cells: Human neuroglioma cell line (ATCC)). A cell suspension of 66′000 cells/mL is prepared and 30 μL are added into the wells of a 384-well plate using an electronic multichannel pipette. […] The cell plates are briefly spun down and placed at 37° C. and 5% CO2. • 2. Day 1: Compound treatment. Compound dose responses are prepared in DMSO. The dose responses are then diluted 1:50 in medium. 10 ul of the diluted compound is added to 30 ul of cells, yielding a final 1:200 dilution of the original compound and final of 0.5% DMSO. Compound-treatments are performed in triplicates. The 384-well plates are placed at 37° C. and 5% CO2. Compound treatment is performed for 16-18 h (see Note 1). • 3. Day 2: Cell fixation. Cells are fixed by adding 10 μL/well 5× concentrated Mirsky's fixative supplemented with 25 μg/mL Hoechst33342. […] The 384-well plate is briefly spun down and incubated for 1 h at room temperature. Cells are then washed using a 384-well plate washer using a protocol which aspirates the volume down to 10 μL/well before dispensing 100 μL/well 1×TBS. Aspiration and dispensing steps are repeated 4 times and a final volume of 100 μL/well is left. The plate is sealed using an adhesive PCR foil. • 4. Imaging. The bottom of the plate is cleaned with 70% ethanol and then imaged using the InCell 1000 automated epifluorescence microscope. 20× magnification is used and 4 different areas (fields) are imaged per well, this typically captures a total of around 400 cells per well. Hoechst33342 images are acquired using an excitation of 360 nm (D360_40x filter), an emission of 460 nm (HQ460_40M filter) and an exposure time of 150 ms. GFP images are acquired using an excitation of 475 nm (S475_20x filter), an emission of 535 nm (HQ535_50M filter) and an exposure time of 1 s. mCherry images are acquired using an excitation of 535 nm (HQ535_50x filter), an emission of 620 nm (HQ620_60M filter) and an exposure time of 1 s. A quadruple band pass mirror is used for all images. • 5. Image analysis. The InCell Analysis software is used to analyze the images using the Multi Target Analysis algorithm. First, nuclei are detected in the Hoechst33342 image using top-hat segmentation and a minimal nuclear area of 50 μm^2. Cells are defined using a collar of 10 μm around the nuclei. Second, puncta (organelles) are identified in the mCherry image inside the cells using multi-top-hat segmentation. Third, the mask of the mCherry puncta is transferred onto the GFP image. Fourth, the GFP fluorescence intensity inside the mCherry puncta mask is measured (reference intensity). • 6. The ‘organelles’ parameter reflects mCherry-positive puncta of the mCherry-GFP-LC3 reporter and is used to calculate ‘LC3 puncta/cell’. […]

[2] = 1 h, read-out: Test 2: T389 cellular assay IC50 (nM)
[3] = TSC1-/- MEFs, 1 hour treatment, P-P70S6K (T389), read-out: Test 2: T389 cellular assay IC50

Chain of recombinant human mTOR (P42345 1360-2549): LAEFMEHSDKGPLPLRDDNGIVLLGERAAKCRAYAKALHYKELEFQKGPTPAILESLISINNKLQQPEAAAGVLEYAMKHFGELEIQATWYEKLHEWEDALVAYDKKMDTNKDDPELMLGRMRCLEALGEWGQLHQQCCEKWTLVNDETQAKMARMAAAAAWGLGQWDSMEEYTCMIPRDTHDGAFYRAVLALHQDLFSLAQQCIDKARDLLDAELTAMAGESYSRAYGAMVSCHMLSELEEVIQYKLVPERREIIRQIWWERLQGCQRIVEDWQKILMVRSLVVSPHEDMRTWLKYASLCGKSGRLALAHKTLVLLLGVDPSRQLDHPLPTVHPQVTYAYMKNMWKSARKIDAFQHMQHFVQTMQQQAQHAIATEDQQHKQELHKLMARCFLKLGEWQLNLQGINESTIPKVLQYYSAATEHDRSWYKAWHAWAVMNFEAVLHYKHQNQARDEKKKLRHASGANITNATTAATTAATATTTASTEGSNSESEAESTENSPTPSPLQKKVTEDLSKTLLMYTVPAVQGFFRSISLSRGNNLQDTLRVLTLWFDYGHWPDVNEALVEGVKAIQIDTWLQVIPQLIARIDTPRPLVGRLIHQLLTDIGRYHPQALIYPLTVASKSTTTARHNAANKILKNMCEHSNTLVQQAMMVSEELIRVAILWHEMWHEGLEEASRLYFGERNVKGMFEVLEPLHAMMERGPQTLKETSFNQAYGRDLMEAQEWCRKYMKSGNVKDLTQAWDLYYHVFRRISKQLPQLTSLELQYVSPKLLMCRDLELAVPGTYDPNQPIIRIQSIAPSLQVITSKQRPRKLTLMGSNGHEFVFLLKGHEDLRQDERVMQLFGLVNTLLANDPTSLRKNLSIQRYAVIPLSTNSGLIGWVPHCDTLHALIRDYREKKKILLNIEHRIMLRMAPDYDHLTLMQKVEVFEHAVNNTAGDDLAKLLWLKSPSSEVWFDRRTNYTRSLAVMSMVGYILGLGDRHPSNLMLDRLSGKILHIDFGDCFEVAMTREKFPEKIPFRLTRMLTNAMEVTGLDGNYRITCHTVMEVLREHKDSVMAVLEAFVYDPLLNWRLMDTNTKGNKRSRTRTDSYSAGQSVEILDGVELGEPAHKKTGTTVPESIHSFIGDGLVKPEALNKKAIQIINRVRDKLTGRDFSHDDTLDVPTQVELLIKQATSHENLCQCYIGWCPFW

| IC50 (recombinant human mTOR) [nM] | Test 3: Autophagy EC50 (nM) (H4 mCherry-GFP-LC3 cells) | EC50 (H4 mCherry-GFP-LC3 cells) [nM] | IC50 [1, 3] [nM] | SMILES | IC50 [1, 2] [nM] |
| --- | --- | --- | --- | --- | --- |
| 2120 |  | 2160 | 1550 | C[C@@H]1COCCN1c1nc(N2CCOC[C@H]2C)c2nc(-c3ccc(-c4ncc[nH]4)cc3)[nH]c2n1 [Example 4, 8-[4-(1H-Imidazol-2-yl)-phenyl]-2,6-bis-((R)-3-methyl-morpholin-4-yl)-9H-purine] |  |
| 91 | n.m. |  | 249 | C[C@@H]1COCCN1c1nc(N2CCN(C3COC3)CC2)nc2[nH]c(-c3cccc4[nH]ccc34)nc12 [Example 18, 8-(1H-Indol-4-yl)-6-((R)-3-methyl-morpholin-4-yl)-2-(4-oxetan-3-yl-piperazin-1-yl)-9H-purine] |  |
| 364 |  | 1460 | 1140 | C[C@H]1COCCN1c1nc(N2CCOC[C@@H]2C)c2nc(-c3ccc(-c4ncc[nH]4)cc3)[nH]c2n1 [Example 30, 8-[4-(1H-Imidazol-2-yl)-phenyl]-2,6-bis-((S)-3-methyl-morpholin-4-yl)-9H-purine] |  |
| 184 |  | 1320 | 997 | C[C@@H]1COCCN1c1nc(N2CCOC[C@@H]2C)nc2[nH]c(-c3ccccn3)nc12 [Example 7, 2-((S)-3-Methyl-morpholin-4-yl)-6-((R)-3-methyl-morpholin-4-yl)-8-pyridin-2-yl-9H-purine] |  |
| 1030 | n.m. |  | 806 | C[C@H]1COCCN1c1nc(N2CCOC[C@@H]2C)c2nc(-c3ccccn3)[nH]c2n1 [Example 8, 2,6-Bis-((S)-3-methyl-morpholin-4-yl)-8-pyridin-2-yl-9H-purine] |  |
| 139 |  | 351 | 1010 | C[C@@H]1COCCN1c1nc(N2CCOC[C@H]2C)c2nc(-c3ccccn3)[nH]c2n1 [Example 1, 2,6-Bis-((R)-3-methyl-morpholin-4-yl)-8-pyridin-2-yl-9H-purine] |  |
| 343 |  | 1440 | 135 | C[C@H]1COCCN1c1nc(N2CCOC[C@@H]2C)c2nc(-c3cc[nH]n3)[nH]c2n1 [Example 10, 2,6-Bis-((S)-3-methyl-morpholin-4-yl)-8-(1H-pyrazol-3-yl)-9H-purine] |  |

Second part, the compound before the results:

| SMILES | IC50 (recombinant human mTOR) [nM] | Test 3: Autophagy EC50 (nM) (H4 mCherry-GFP-LC3 cells) | EC50 (H4 mCherry-GFP-LC3 cells) [nM] | IC50 [1, 3] [nM] | IC50 [1, 2] [nM] |
| --- | --- | --- | --- | --- | --- |
| C[C@@H]1CN(c2nc(N3CCOC[C@H]3C)c3nc(-c4cccc5[nH]ccc45)[nH]c3n2)C[C@H](C)O1 [Example 23, 2-((2S,6R)-2,6-Dimethyl-morpholin-4-yl)-8-(1H-indol-4-yl)-6-((R)-3-methyl-morpholin-4-yl)-9H-purine] | 78 | n.m. |  |  | 104 |
| C[C@@H]1COCCN1c1nc(N2CCOC[C@H]2C)c2nc(-c3ccc(N)nc3)[nH]c2n1 [Example 28, 5-[2,6-Bis-((R)-3-methyl-morpholin-4-yl)-9H-purin-8-yl]-pyridin-2-ylamine] | 754 |  | 2370 |  | 272 |
| C[C@@H]1COCCN1c1nc(N2CCOC[C@@H]2C)nc2[nH]c(-c3cc[nH]n3)nc12 [Example 2, 2-((S)-3-Methyl-morpholin-4-yl)-6-((R)-3-methyl-morpholin-4-yl)-8-(1H-pyrazol-3-yl)-9H-purine] | 104 |  | 1050 | 131 |  |
| C[C@@H]1COCCN1c1nc(N2CCOC[C@H]2C)c2nc(-c3cc(CO)cc4[nH]ccc34)[nH]c2n1 [Example 6, {4-[2,6-Bis-((R)-3-methyl-morpholin-4-yl)-9H-purin-8-yl]-1H-indol-6-yl}-methanol] | 66 |  | 423 |  | 1180 |
| CC[C@@H]1COCCN1c1nc(N2CCOC[C@H]2C)c2nc(-c3cccc4[nH]ccc34)[nH]c2n1 [Example 15, 2-((R)-3-Ethyl-morpholin-4-yl)-8-(1H-indol-4-yl)-6-((R)-3-methyl-morpholin-4-yl)-9H-purine] | 60 |  | 752 |  | 194 |
| C[C@@H]1COCCN1c1nc(N2CCC(C(F)(F)F)CC2)nc2[nH]c(-c3cccc4[nH]ccc34)nc12 [Example 22, 8-(1H-Indol-4-yl)-6-((R)-3-methyl-morpholin-4-yl)-2-(4-trifluoromethyl-piperidin-1-yl)-9H-purine] | 1510 |  | 1680 |  | 1040 |
| COc1cc(-c2nc3c(N4CCOC[C@H]4C)nc(N4CCOC[C@@H]4C)nc3[nH]2)c2cc[nH]c2c1 [Example 31, 8-(6-Methoxy-1H-indol-4-yl)-2-((S)-3-methyl-morpholin-4-yl)-6-((R)-3-methyl-morpholin-4-yl)-9H-purine] | 28 |  | 145 |  | 71 |
| C[C@@H]1COCCN1c1nc(N2CCCOCC2)nc2[nH]c(-c3cccc4[nH]ccc34)nc12 [Example 3, 8-(1H-Indol-4-yl)-6-((R)-3-methyl-morpholin-4-yl)-2-[1,4]oxazepan-4-yl-9H-purine] | 164 |  | 422 |  | 76 |
| C[C@@H]1COCCN1c1nc(N2CCOC[C@H]2C)c2nc(-c3cc[nH]n3)[nH]c2n1 [Example 11, 2,6-Bis-((R)-3-methyl-morpholin-4-yl)-8-(1H-pyrazol-3-yl)-9H-purine] | 385 |  | 1520 | 190 |  |
